{"source": "paper PMC8187479", "about": "“Sugar phosphate activation of the stress sensor eIF2B” (Nature Communications, 2021)", "data": [{"target": "T1, eIF2Bα (Homo sapiens, UniProt Q14232)", "T1 construct": "made in house; host or cells: E. coli BL21(DE3)", "T1 sequence (Q14232 1-305)": "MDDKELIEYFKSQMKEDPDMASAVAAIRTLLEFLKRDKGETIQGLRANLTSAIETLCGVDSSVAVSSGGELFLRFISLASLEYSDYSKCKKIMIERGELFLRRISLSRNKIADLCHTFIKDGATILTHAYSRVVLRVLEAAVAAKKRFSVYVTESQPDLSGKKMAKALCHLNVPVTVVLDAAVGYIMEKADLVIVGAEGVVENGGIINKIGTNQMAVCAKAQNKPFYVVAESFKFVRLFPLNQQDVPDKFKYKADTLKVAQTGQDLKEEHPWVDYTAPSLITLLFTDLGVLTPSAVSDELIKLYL", "assay": "MIDAS (mass spectrometry integrated with equilibrium dialysis) metabolite binding screen", "conditions": "MIDAS metabolite binding screen with eIF2Bα; sheet \"eIF2Ba\"", "method": "(§1) Metabolites were combined into four defined screening pools. […] To the reverse side, 300 μL of 50 μM per metabolite pool was aliquoted and sealed (metabolite chamber). Loaded dialysis plates were placed in the dark at 4 °C on a rotating shaker (120 rpm) and incubated for 40 h. Post-dialysis, metabolites were isolated from each chamber by cold methanol extraction. Each sample was analyzed in technical triplicate by FIA-MS on a SCIEX X500R QTOF MS with interspersed blanks injections. The input metabolite pools were assayed at the beginning, middle, and end of each MS method batch for QC and normalization.\n(§2) MIDAS FIA-MS spectra were processed in SCIEX OS 1.6 software to determine metabolite abundances by integrating the mean area under the curve for each extracted ion chromatogram. For each dialysis replicate, log2(fold change) for each metabolite was calculated as the difference between the log2 abundance in the protein chamber and metabolite chamber. For each technical triplicate, up to one outlier was removed using a z-score cutoff of five (<0.1% of observations). The corrected technical replicates were collapsed to one mean fold-change summary per protein-metabolite pair. To remove fold-change variation that was not specific to a given metabolite-protein pair, the first three principal components of the total screening dataset were removed on a per metabolite pool basis by subtracting the projection of the first 3 principal components, creating log2(corrected fold change). Protein-metabolite z-scores were determined by comparing the target protein-metabolite log2(corrected fold change) to a no-signal model for that metabolite using measures of the central tendency (median) and standard deviation (extrapolated from the 25–75% quantiles), which are robust to the signals in the tails of a metabolite’s fold-change distribution. Z-scores were false-discovery rate controlled using Storey’s q-value (qvalue, R) and protein-metabolite interactions with q-values < 0.1 were considered significant.", "values": [{"compound": "O=C(O)C(O)c1ccc(O)c(O)c1", "note": "(racemic) [DL-3,4-Dihydroxymandelic acid]", "log2(corrected fold change)": -0.05412}, {"compound": "N[C@@H](CSSC[C@H](N)C(=O)O)C(=O)O", "note": "[L-Cystine]", "log2(corrected fold change)": 0.04101}, {"compound": "O=C(O)COP(=O)(O)O", "note": "[2-Phosphoglycolic acid]", "log2(corrected fold change)": 0.0426}, {"compound": "Cc1cn([C@@H]2O[C@H](CO)[C@@H](O)[C@H]2O)c(=O)[nH]c1=O", "note": "[5-Methyluridine]", "log2(corrected fold change)": 0.07915}, {"compound": "NCCO", "note": "[Ethanolamine]", "log2(corrected fold change)": 0.0208}, {"compound": "O=C(O)CCCC(=O)O", "note": "[Glutaric acid]", "log2(corrected fold change)": -0.03876}, {"compound": "N[C@H](CO)C(=O)O", "note": "[D-Serine]", "log2(corrected fold change)": -0.04824}, {"compound": "N[C@H](CCC(=O)O)C(=O)O", "note": "[D-Glutamic acid]", "log2(corrected fold change)": -0.01634}, {"compound": "O=C(O)[C@@H](O)[C@H](O)[C@H](O)CO", "note": "[D-Arabinonic acid]", "log2(corrected fold change)": -0.01209}, {"compound": "CC(C)C[C@@H](O)C(=O)O", "note": "[D-Leucic acid]", "log2(corrected fold change)": -0.0302}, {"compound": "C[N+](C)(C)CCOP(=O)([O-])OC[C@H](O)CO", "note": "[Choline glycerophosphate]", "log2(corrected fold change)": -0.09086}, {"compound": "CC(=O)N[C@@H]1C(O)O[C@H](CO)[C@@H](O)[C@@H]1O", "note": "(stereo partly drawn) [N-Acetyl-D-mannosamine]", "log2(corrected fold change)": 0.03658}, {"compound": "O=C(O)CNC(=O)Cc1ccc(O)cc1", "note": "[4-Hydroxyphenylacetylglycine]", "log2(corrected fold change)": -0.008576}, {"compound": "Nc1ccn([C@@H]2O[C@H](COP(=O)(O)OP(=O)(O)OP(=O)(O)O)[C@@H](O)[C@H]2O)c(=O)n1", "note": "[Cytidine 5-triphosphate]", "log2(corrected fold change)": 0.04784}, {"compound": "N[C@@H](CCCCN[C@@H](CCC(=O)O)C(=O)O)C(=O)O", "note": "[L-Saccharopine]", "log2(corrected fold change)": -0.0272}, {"compound": "C[C@@H](O)C(=O)SC[C@H](NC(=O)CC[C@H](N)C(=O)O)C(=O)NCC(=O)O", "note": "[S-Lactoylglutathione]", "log2(corrected fold change)": -0.04124}, {"compound": "Cc1ncc(CO)c(C=O)c1O", "note": "[Pyridoxal]", "log2(corrected fold change)": 0.1009}, {"compound": "O=C(O)CC(O)CC(=O)O", "note": "[3-hydroxypentanedioic acid]", "log2(corrected fold change)": -0.0058}, {"compound": "Stachyose", "log2(corrected fold change)": -0.02264}, {"compound": "OC[C@H]1O[C@@H](O[C@H]2[C@H](O)[C@@H](O)[C@H](O)O[C@@H]2CO)[C@H](O)[C@@H](O)[C@@H]1O", "note": "[D-Cellobiose]", "log2(corrected fold change)": -0.03103}, {"compound": "Nc1nc2c(ncn2[C@@H]2O[C@H](CO)[C@@H](O)[C@H]2O)c(=O)[nH]1", "note": "[Guanosine]", "log2(corrected fold change)": 0.01196}, {"compound": "CN(CC(=O)O)C(=N)NP(=O)(O)O", "note": "[Phosphocreatine]", "log2(corrected fold change)": -0.03403}, {"compound": "O=C(O)CCC(=O)C(=O)O", "note": "[Ketoglutaric acid]", "log2(corrected fold change)": 0.06742}, {"compound": "C[C@H](O)[C@@H](O)[C@@H](O)[C@H](O)C=O", "note": "[L-Fucose]", "log2(corrected fold change)": -0.06063}, {"compound": "Cc1ncc(C[n+]2csc(CCO)c2C)c(N)n1", "note": "[Thiamine]", "log2(corrected fold change)": 0.0196}, {"compound": "Nc1nc(=O)c2nc(CNc3ccc(C(=O)N[C@@H](CCC(=O)O)C(=O)O)cc3)cnc2[nH]1", "note": "[Folic acid]", "log2(corrected fold change)": -0.02054}, {"compound": "C[n+]1cccc(C(N)=O)c1", "note": "[1-Methylnicotinamide]", "log2(corrected fold change)": 0.02855}, {"compound": "N[C@H]1C(O)O[C@H](COP(=O)(O)O)[C@@H](O)[C@@H]1O", "note": "(stereo partly drawn) [D-Glucosamine 6-phosphate]", "log2(corrected fold change)": -0.005422}, {"compound": "O=C(O)C[C@H](O)C(=O)O", "note": "[L-Malic acid]", "log2(corrected fold change)": -0.01079}, {"compound": "Nc1c(O)cccc1C(=O)O", "note": "[3-Hydroxyanthranilic acid]", "log2(corrected fold change)": -0.02136}, {"compound": "C[N+](C)(C)CCOP(=O)(O)OP(=O)([O-])OC[C@H]1O[C@@H](n2ccc(N)nc2=O)[C@H](O)[C@@H]1O", "note": "[Cytidine 5-diphosphocholine]", "log2(corrected fold change)": -0.000615}, {"compound": "CC(O)(CC(=O)O)CC(=O)SCCNC(=O)CCNC(=O)[C@H](O)C(C)(C)COP(=O)(O)OP(=O)(O)OC[C@H]1O[C@@H](n2cnc3c(N)ncnc32)[C@H](O)[C@@H]1OP(=O)(O)O", "note": "(some centres unmarked) [3-Hydroxy-3-methylglutaryl coenzyme A]", "log2(corrected fold change)": 0.00866}, {"compound": "CC(=O)N[C@@H](CC(=O)O)C(=O)O", "note": "[N-Acetyl-L-aspartate]", "log2(corrected fold change)": 0.003577}, {"compound": "CC(C(=O)O)C(=O)O", "note": "[Methylmalonic acid]", "log2(corrected fold change)": -0.05121}, {"compound": "C[C@H](O)C(=O)O", "note": "[L-Lactic acid]", "log2(corrected fold change)": -0.02892}, {"compound": "OC[C@@H](O)[C@@H](O)[C@@H](O)CO", "note": "[Adonitol]", "log2(corrected fold change)": 0.006339}]}, {"target": "T1, eIF2Bα", "assay": "MIDAS (mass spectrometry integrated with equilibrium dialysis) metabolite binding screen", "conditions": "MIDAS screen, sheet eIF2Ba; metabolites screened in pools 1-4; p-value and q-value given", "method": "as §1, §2", "values": [{"compound": "CC(C)CC(=O)C(=O)O", "note": "[4-Methyl-2-oxovaleric acid]", "log2(corrected fold change)": -0.05419}, {"compound": "O=c1ccn([C@@H]2O[C@H](COP(=O)(O)OP(=O)(O)O)[C@@H](O)[C@H]2O)c(=O)[nH]1", "note": "[Uridine 5-diphosphate]", "log2(corrected fold change)": -0.03147}, {"compound": "O=P(O)(O)OC[C@H]1O[C@@H](O)C[C@@H]1O", "note": "[2-Deoxyribose-5-phosphate]", "log2(corrected fold change)": 1.609}, {"compound": "CCC(=O)C(=O)O", "note": "[2-Ketobutyric acid]", "log2(corrected fold change)": -0.05529}, {"compound": "CCCCC[C@H](O)/C=C/[C@@H]1[C@H]2C/C(=C/CCCC(=O)O)O[C@H]2C[C@H]1O", "note": "[Prostaglandin I2]", "log2(corrected fold change)": 0.05625}, {"compound": "O=P(O)(O)OC[C@H]1OC(O)(CO)[C@@H](O)[C@@H]1O", "note": "(stereo partly drawn) [D-Fructose 6-phosphate]", "log2(corrected fold change)": -0.1344}, {"compound": "O=C(O)[C@@H]1CCCCN1", "note": "[L-Pipecolic acid]", "log2(corrected fold change)": -0.07553}, {"compound": "Cc1cn([C@H]2C[C@H](O)[C@@H](COP(=O)(O)OP(=O)(O)OP(=O)(O)O)O2)c(=O)[nH]c1=O", "note": "[Thymidine 5-triphosphate]", "log2(corrected fold change)": 0.01939}, {"compound": "N=C(N)NCCCC(=O)O", "note": "[4-Guanidinobutyric acid]", "log2(corrected fold change)": 0.2552}, {"compound": "O=P(O)(O)O[C@H]1O[C@H](CO)[C@H](O)[C@H](O)[C@H]1O", "note": "[D-Galactose 1-phosphate]", "log2(corrected fold change)": -0.1344}, {"compound": "NCCc1c[nH]cn1", "note": "[Histamine]", "log2(corrected fold change)": 0.1325}, {"compound": "C/C=C/C(=O)SCCNC(=O)CCNC(=O)[C@H](O)C(C)(C)COP(=O)(O)OP(=O)(O)OC[C@H]1O[C@@H](n2cnc3c(N)ncnc32)[C@H](O)[C@@H]1OP(=O)(O)O", "note": "[Crotonoyl coenzyme A]", "log2(corrected fold change)": -2.153}, {"compound": "O=C(O)Cc1ccc(O)cc1", "note": "[4-Hydroxyphenylacetic acid]", "log2(corrected fold change)": -0.07366}, {"compound": "NC(=O)CC[C@H](N)C(=O)O", "note": "[L-Glutamine]", "log2(corrected fold change)": 0.1976}, {"compound": "Cytidine monophosphate", "log2(corrected fold change)": 1.354}, {"compound": "O=P(O)(O)O[C@H]1O[C@H](CO)[C@@H](O)[C@H]1O", "note": "[D-Ribose 1-phosphate]", "log2(corrected fold change)": 0.3189}, {"compound": "OC[C@H]1O[C@H](OC[C@H]2OC(O)[C@H](O)[C@@H](O)[C@@H]2O)[C@H](O)[C@@H](O)[C@@H]1O", "note": "(some centres unmarked) [Isomaltose]", "log2(corrected fold change)": -0.3372}, {"compound": "Phosphatidic Acid", "log2(corrected fold change)": 0.1983}, {"compound": "CCC(CO)C(=O)O", "note": "(centres unmarked) [2-(Hydroxymethyl)butanoic acid]", "log2(corrected fold change)": 0.09429}, {"compound": "O=C[C@H](O)[C@H](O)[C@H](O)COP(=O)(O)O", "note": "[D-Ribose 5-phosphate]", "log2(corrected fold change)": 0.3189}, {"compound": "CN(C)c1ncnc2nc[nH]c12", "note": "[Dimethylaminopurine]", "log2(corrected fold change)": -0.08009}, {"compound": "O=C(O)c1ccc(O)cc1", "note": "[4-Hydroxybenzoic acid]", "log2(corrected fold change)": 0.1295}, {"compound": "O=C(O)C(=O)CC(O)C(=O)O", "note": "(centres unmarked) [4-Hydroxy-2-oxoglutaric acid]", "log2(corrected fold change)": -0.1985}, {"compound": "O=C1CC[C@H](C(=O)O)N1", "note": "[D-Pyroglutamic Acid]", "log2(corrected fold change)": -0.09309}, {"compound": "O=C1OC[C@@H](O)[C@H]1O", "note": "[D-Erythrono-1,4-lactone]", "log2(corrected fold change)": -0.2396}, {"compound": "Phosphatidylethanolamine", "log2(corrected fold change)": 0.09167}, {"compound": "N[C@@H](Cc1c[nH]c2ccccc12)C(=O)O", "note": "[L-Tryptophan]", "log2(corrected fold change)": 0.08785}, {"compound": "CN(CC(=O)O)C(=N)N", "note": "[Creatine]", "log2(corrected fold change)": 0.06671}, {"compound": "CC(=O)CC(=O)O", "note": "[Acetoacetate]", "log2(corrected fold change)": -0.05529}, {"compound": "C[N+](C)(C)CCOP(=O)(O)O", "note": "[Phosphocholine]", "log2(corrected fold change)": -0.0156}, {"compound": "NC(=O)c1cccnc1", "note": "[Nicotinamide]", "log2(corrected fold change)": -0.1042}, {"compound": "CC(O)CC(=O)O", "note": "(centres unmarked) [3-Hydroxybutyric acid]", "log2(corrected fold change)": 0.07137}, {"compound": "NC(=O)NCCCC[C@H](N)C(=O)O", "note": "[Homocitrulline]", "log2(corrected fold change)": 0.1565}, {"compound": "C/C(=C/C(=O)O)C(=O)O", "note": "[Citraconic acid]", "log2(corrected fold change)": 0.0972}, {"compound": "Nc1c(C(=O)O)c2nc3c(C(=O)O)cccc3oc-2cc1=O", "note": "[Cinnabarinic Acid]", "log2(corrected fold change)": -0.1918}]}]}
